The values below come from ChEMBL document CHEMBL3232776, “Emergence of pyrido quinoxalines as new family of antimalarial agents” (Eur J Med Chem, 2014).

Data set [1] relates to Plasmodium falciparum. As to the kind of experiment: Antimalarial activity against chloroquine-sensitive Plasmodium falciparum 3D7 infected in human erythrocytes assessed as parasite growth inhibition after 50 hrs by SYBR Green1 dye-based fluorescence assay. The format is functional, organism-based.
Data set [2] concerns Plasmodium falciparum. As to the kind of experiment: Potency index, ratio of ciprofloxacin IC50 to compound IC50 for chloroquine-sensitive Plasmodium falciparum 3D7 infected in human erythrocytes. The format is functional.
For data set [3], the system named is Plasmodium falciparum. In words: Potency index, ratio of ciprofloxacin IC50 to compound IC50 for chloroquine-resistant Plasmodium falciparum Dd2 infected in human erythrocytes. The format is functional.
Data set [4] in a line: Solubility of the compound at 93 uM. The format is physicochemical.
The test system of data set [5] is Plasmodium falciparum. As to the kind of experiment: Antimalarial activity against chloroquine-resistant Plasmodium falciparum Dd2 infected in human erythrocytes assessed as parasite growth inhibition after 50 hrs by SYBR Green1 dye-based fluorescence assay. As to conditions: Dd2, 50 h. Format: functional, cell-based.
For data set [6], the system named is Plasmodium falciparum. As to the kind of experiment: Antimalarial activity against blood stage form of Plasmodium falciparum assessed as incorporation of [3H]hypoxanthine after 72 hrs by liquid scintillation counting. Format: functional, organism-based.
A further data set deals with THP-1. In words: Cytotoxicity against human THP1 cells assessed as cell viability after 72 hrs by MTT assay. The format is cell-based. The following applies: THP-1, 72 h. A general note: Tetrazolium dyes change colour on reduction, which living cells bring about.
A short description of data set [7]: Selectivity index, ratio of IC50 for human THP1 cells to IC50 for chloroquine-sensitive Plasmodium falciparum 3D7. Format: toxicity, cell-based, THP-1. As to conditions: read-out: Ratio IC50.
The test system of the next data set is HepG2. As to the kind of experiment: Cytotoxicity against human HepG2 cells assessed as cell viability after 72 hrs by MTT assay. The format is cell-based. The following applies: HepG2, 72 h.
A short description of data set [8]: Selectivity index, ratio of IC50 for human HepG2 cells to IC50 for chloroquine-sensitive Plasmodium falciparum 3D7. As to conditions: read-out: Ratio IC50. Format: toxicity, cell-based.
Where [9] appears, read: Plasmodium falciparum, 3D7, 50 h, read-out: IC50.

Calls of active or inactive are those of the source. No cut-off for these calls is given here.

Usually IC50 stands for the concentration at which inhibition is half-maximal. With `CCCCn1cc(C(=O)OCC)c(=O)c2c3nc(-c4ccc(F)cc4)c(-c4ccc(F)cc4)nc3ccc21`, the IC50 with Plasmodium falciparum [1] (setting [9]) is greater than 50 µM. Besides, the “Ratio IC50” value with Plasmodium falciparum [2] and in the data set with Plasmodium falciparum [3] was 2 each time.

Take `CCn1cc(C(=O)O)c(=O)c2c3nc(-c4ccc(F)cc4)c(-c4ccc(F)cc4)nc3ccc21`: the IC50 with Plasmodium falciparum [1] (setting [9]) was greater than 50 µM.

Take `CCOC(=O)c1cn(Cc2ccc(C(F)(F)F)cc2)c2ccc3nc(-c4ccccc4)c(-c4ccccc4)nc3c2c1=O`: in the data set with Plasmodium falciparum [1], the IC50 result is listed as “ND(Insoluble)”. Also, the “Ratio IC50” value in the data set on Plasmodium falciparum [2] and in the data set on Plasmodium falciparum [3] was 2 each time. Moreover, the solubility result in data set [4] is recorded as “Insoluble”.

As for `CCOC(=O)c1cn(CC)c2ccc3nc(-c4ccccc4)c(-c4ccccc4)nc3c2c1=O`, the 50% inhibitory concentration (IC50) is 15.4 µM with Plasmodium falciparum [1] (setting [9]) and 11.3 µM with Plasmodium falciparum [5]. For the same molecule, the “Ratio IC50” value with Plasmodium falciparum [2] and in the data set with Plasmodium falciparum [3] was 2 each time.

For `NC1CCN(c2c(F)cc3c(=O)c(C(=O)O)cn(C4CC4)c3c2Cl)C1` (stereo not drawn) [CLINAFLOXACIN], the IC50 in the data set on Plasmodium falciparum [6] was 20 µM.

Consider `O=C(O)c1cn(Cc2ccc(F)cc2)c2ccc3nc(-c4ccccc4)c(-c4ccccc4)nc3c2c1=O`, for which, in the data set on Plasmodium falciparum [1], the “growth inhibition (GI)” value was “inactive”. The solubility entry in data set [4] is “Insoluble”.

Turning to `Cc1c(F)c(N2CCNC(C)C2)cc2c1c(=O)c(C(=O)O)cn2C1CC1` (stereo not drawn) [GREPAFLOXACIN], the IC50 with Plasmodium falciparum [6] stood at 20 µM.

As for `CCCCn1cc(C(=O)O)c(=O)c2c3nc(-c4ccccc4)c(-c4ccccc4)nc3ccc21`, in the data set on Plasmodium falciparum [1], the “growth inhibition (GI)” value was “inactive”. The solubility entry in data set [4] was “Insoluble”.

Consider `CCOC(=O)c1cn(CC(F)(F)F)c2ccc3nc(-c4ccccc4)c(-c4ccccc4)nc3c2c1=O`, for which the IC50 in the data set with Plasmodium falciparum [1] (setting [9]) was 13.1 µM. Besides, the “Ratio IC50” value in the data set on Plasmodium falciparum [2] and in the data set on Plasmodium falciparum [3] was 2 throughout.

Turning to `C#CCn1cc(C(=O)OCC)c(=O)c2c3nc(-c4ccccc4)c(-c4ccccc4)nc3ccc21`, the IC50 result in the data set on Plasmodium falciparum [1] was “ND(Insoluble)”. Moreover, the “Ratio IC50” value in the data set with Plasmodium falciparum [2] and with Plasmodium falciparum [3] was 2 throughout. The solubility result in data set [4] is “Insoluble”.

Take `C#CCn1cc(C(=O)O)c(=O)c2c3nc(-c4ccccc4)c(-c4ccccc4)nc3ccc21`: in the data set with Plasmodium falciparum [1], the “growth inhibition (GI)” value was “inactive”. Besides, the solubility entry in data set [4] is “Insoluble”.

Turning to `O=C(O)c1cn(CC(F)(F)F)c2ccc3nc(-c4ccccc4)c(-c4ccccc4)nc3c2c1=O`, the “growth inhibition (GI)” value in the data set with Plasmodium falciparum [1] was “inactive”. For the same molecule, the solubility result in data set [4] is recorded as “Insoluble”.

Consider `C#CCn1cc(C(=O)O)c(=O)c2c3nc(-c4ccc(F)cc4)c(-c4ccc(F)cc4)nc3ccc21`, for which, in the data set on Plasmodium falciparum [1] (setting [9]), the IC50 was greater than 50 µM.

For the molecule `CCn1cc(C(=O)O)c(=O)c2c3nc(-c4ccccc4)c(-c4ccccc4)nc3ccc21`, in the data set with Plasmodium falciparum [1], the “growth inhibition (GI)” value was “inactive”. Further, the solubility result in [4] is listed as “Insoluble”.

Take `O=C(O)c1cn(C2CC2)c2cc(N3CCNCC3)c(F)cc2c1=O` [CIPROFLOXACIN]: the IC50 in the data set with Plasmodium falciparum [1] (setting [9]) was 23.1 µM; with Plasmodium falciparum [5] it was 33.9 µM; in the data set on THP-1, 60.5 µM; in the data set on Plasmodium falciparum [6] it was 20 µM. The selectivity ratio in data set [7] came out at 2.61.

For the molecule `CCOC(=O)c1cn(Cc2ccc(F)cc2)c2ccc3nc(-c4ccccc4)c(-c4ccccc4)nc3c2c1=O`, the IC50 in the data set with Plasmodium falciparum [1] (setting [9]) was determined as 6.94 µM; in the data set on Plasmodium falciparum [5], 6.27 µM; in the data set with HepG2, 150 µM; in the data set on THP-1 it was 200 µM. Also, the “Ratio IC50” value with Plasmodium falciparum [2] and in the data set with Plasmodium falciparum [3] was 3.3 throughout. For the same molecule, the values for the selectivity ratio in data set [8] and in data set [7] were 21.6 and 28.8, respectively.

In the case of `CCOC(=O)c1cn(Cc2ccc(C(F)(F)F)cc2)c2ccc3nc(-c4ccc(F)cc4)c(-c4ccc(F)cc4)nc3c2c1=O`, in the data set with Plasmodium falciparum [1] (setting [9]), the IC50 was greater than 50 µM. The “Ratio IC50” value in the data set on Plasmodium falciparum [2] and with Plasmodium falciparum [3] was 2 each time.

Turning to `CCn1cc(C(=O)O)c(=O)c2cc(F)c(N3CCNCC3)nc21` [ENOXACIN], in the data set on Plasmodium falciparum [6], the IC50 amounted to 20 µM.

In the case of `COc1cccc2c1C(=O)c1c(O)c3c(c(O)c1C2=O)C[C@@](O)(C(=O)CO)C[C@@H]3O[C@H]1C[C@H](N)[C@H](O)[C@H](C)O1` [DOXORUBICIN], the IC50 in the data set on HepG2 was 0.2 µM; in the data set on THP-1 it was 0.05 µM.

On to `O=C(O)c1cn(Cc2ccc(C(F)(F)F)cc2)c2ccc3nc(-c4ccc(F)cc4)c(-c4ccc(F)cc4)nc3c2c1=O`, for which, in the data set with Plasmodium falciparum [1] (setting [9]), the IC50 was greater than 50 µM.

For the molecule `CCOC(=O)C(=CNc1ccc2nc(-c3ccccc3)c(-c3ccccc3)nc2c1)C(=O)OCC`, the IC50 was determined as 16 µM with Plasmodium falciparum [1] (setting [9]) and 15.5 µM in the data set on Plasmodium falciparum [5].

For `O=C(O)c1cn(Cc2ccc(C(F)(F)F)cc2)c2ccc3nc(-c4ccccc4)c(-c4ccccc4)nc3c2c1=O`, in the data set on Plasmodium falciparum [1], the “growth inhibition (GI)” value is “inactive”. For the same molecule, the solubility result in data set [4] is “Insoluble”.

Regarding `CCOC(=O)c1cn(Cc2ccc(F)cc2)c2ccc3nc(-c4ccc(F)cc4)c(-c4ccc(F)cc4)nc3c2c1=O`, the IC50 was found to be 7.59 µM in the data set with Plasmodium falciparum [1] (setting [9]), 7.11 µM in the data set on Plasmodium falciparum [5], 200 µM in the data set with HepG2 and 140 µM with THP-1. For the same molecule, the “Ratio IC50” value with Plasmodium falciparum [2] and in the data set with Plasmodium falciparum [3] was 2 throughout. The figures for the selectivity ratio in data set [8] and in data set [7] were 26.4 and 18.4, respectively.

Turning to `CCCCn1cc(C(=O)O)c(=O)c2c3nc(-c4ccc(F)cc4)c(-c4ccc(F)cc4)nc3ccc21`, the IC50 with Plasmodium falciparum [1] (setting [9]) was 40.4 µM.

Consider `CCOC(=O)c1cn(CC(F)(F)F)c2ccc3nc(-c4ccc(F)cc4)c(-c4ccc(F)cc4)nc3c2c1=O`, for which the IC50 is 3.92 µM in the data set on Plasmodium falciparum [1] (setting [9]), 4.6 µM in the data set on Plasmodium falciparum [5], 250 µM in the data set on HepG2 and 275 µM with THP-1. Also, the “Ratio IC50” value in the data set on Plasmodium falciparum [2] and in the data set on Plasmodium falciparum [3] was 5 throughout. Besides, the figures for the selectivity ratio in data set [8] and in [7] were 63.8 and 70.2, respectively.

With `CCOC(=O)C(=CNc1ccc2nc(-c3ccc(F)cc3)c(-c3ccc(F)cc3)nc2c1)C(=O)OCC`, in the data set on Plasmodium falciparum [1] (setting [9]), the IC50 came out at 21.3 µM.

`O=C(O)c1cn(Cc2ccc(F)cc2)c2ccc3nc(-c4ccc(F)cc4)c(-c4ccc(F)cc4)nc3c2c1=O`: in the data set on Plasmodium falciparum [1] (setting [9]), the IC50 was greater than 50 µM.

`CCOC(=O)c1cnc2ccc3nc(-c4ccccc4)c(-c4ccccc4)nc3c2c1O`: the IC50 with Plasmodium falciparum [1] (setting [9]) stood at 29.8 µM.

As to `C#CCn1cc(C(=O)OCC)c(=O)c2c3nc(-c4ccc(F)cc4)c(-c4ccc(F)cc4)nc3ccc21`, the IC50 in the data set on Plasmodium falciparum [1] (setting [9]) came to 18.7 µM. For the same molecule, the “Ratio IC50” value in the data set on Plasmodium falciparum [2] and with Plasmodium falciparum [3] was 2 each time.

Take `O=C(O)c1cn(CC(F)(F)F)c2ccc3nc(-c4ccc(F)cc4)c(-c4ccc(F)cc4)nc3c2c1=O`: the IC50 with Plasmodium falciparum [1] (setting [9]) is greater than 50 µM.

In the case of `CCOC(=O)c1cn(CC)c2ccc3nc(-c4ccc(F)cc4)c(-c4ccc(F)cc4)nc3c2c1=O`, the IC50 with Plasmodium falciparum [1] (setting [9]) amounted to 32.2 µM. In addition, the “Ratio IC50” value in the data set on Plasmodium falciparum [2] and in the data set with Plasmodium falciparum [3] was 2 throughout.

`CCCCn1cc(C(=O)OCC)c(=O)c2c3nc(-c4ccccc4)c(-c4ccccc4)nc3ccc21`: the IC50 with Plasmodium falciparum [1] (setting [9]) worked out at 9.17 µM. Besides, the “Ratio IC50” value in the data set with Plasmodium falciparum [2] and in the data set on Plasmodium falciparum [3] was 2 in each case.

On to `CCOC(=O)c1cnc2ccc3nc(-c4ccc(F)cc4)c(-c4ccc(F)cc4)nc3c2c1O`, for which the IC50 in the data set with Plasmodium falciparum [1] (setting [9]) was 15.7 µM; with Plasmodium falciparum [5], 26.9 µM.
